Measurements taken from patent US8404866B2, “Substituted heterocyclic mercaptosulfonamide metalloprotease inhibitors” (Florida State University Research Foundation, priority 2008, dated 2013).
Structures can show the parent of a compound that is named as a salt.

Columns and labels:
Assay type in all cases: biochemical
[1] = molecular target: T1, MMP-14 (cdMT-1; human recombinant catalytic domain of membrane-type 1 matrix metalloproteinase) (Homo sapiens, UniProt P50281); test: Enzyme kinetic assay, inhibition of MMP-14; settings: read-out: Ki (value in parentheses), cdMT-1 MMP-14
T1 construct: human recombinant catalytic domain of membrane-type 1 matrix metalloproteinase (cdMT1-MMP)
Excerpt: (§1) The following protocol was used to obtain the data found in the following table. Materials: The fluorescent peptide substrates for matrix metalloproteinases (MMPs) used were purchased from Bachem Chem. Co. The metal salts and Brij-35 were purchased from Fisher Scientific Inc. All other chemicals were purchased from Sigma-Aldrich Chem. Co. The sources and biochemical characterizations of multiple MMPs, including MMP-1/human fibroblast collagenase (HFC), MMP-2/human fibroblast gelatinase (HFG), MMP-8/human neutrophil collagenase (HNC), and MMP-9/human neutrophil gelatinase (HNG), MMP-7/human matrilysin (MLN), MMP-3/human fibroblast stromelysin-1 (HFS), human recombinant catalytic domain of membrane-type 1 matrix metalloproteinase (cdMT1-MMP), catalytic domain of MMP-12/metalloelastase (cdMET), and MMP-26/human endometase (EDM) were described previously (Sang, Q. X., Birkedal-Hansen, H., and Van Wart, H. E. Proteolytic and non-proteolytic activation of human neutrophil progelatinase B. Biochim. Biophys. Acta. 1995; 1251, 99-108; Sang, Q. A., Bodden, M. K., and Windsor, L. J. Activation of human progelatinase A by collagenase and matrilysin: activation of procollagenase by matrilysin. J. Protein. Chem. 1996; 15, 243-253; Li, H., Bauzon, D. E., Xu, X., Tschesche, H., Cao, J., and Sang, Q.-X. A. Immunological characterization of cell-surface and soluble forms of membrane type 1 matrix metalloproteinase in human breast cancer cells and in fibroblasts. Molec. Carcinog. 1998; 22, 84-94; Park, H. I., Ni, J., Gerkema, F. E., Liu, D., Belozerov, V. E., and Sang, Q.-X. A. Identification and characterization of human endometase (Matrix metalloproteinase-26) from endometrial tumor. J. Biol. Chem., 2000; 275, 20540-20544). The active concentrations of MMPs were determined by titration with GM6001, a tight-binding MMP inhibitor, as described previously (Park, H. I., Turk, B. E., Gerkema, F. E., Cantley, L. C., and Sang, Q.-X. A. Peptide substrate specificities and protein cleavage sites of human endometase/matrilysin-2/matrix metalloproteinase-26. J. Biol. Chem. 2002; 277, 35168-35175).
(§2) The active inhibitor concentrations were estimated by titrating the mercapto group with 5,5′-dithiobis(2-nitrobenzoic acid) (DTNB; Ellman's reagent) as described previously (Ellman, G. L. A colorimetric method for determining low concentrations of mercaptans. Arch. Biochem. Biophys. 1958; 74, 443-450; Ellman, G. L. Tissue sulfhydryl groups. Arch. Biochem. Biophys. 1959; 82, 70-77; Riddles, P. W., Blakeley, R. L., and Zerner, B. Ellman's reagent: 5,5′-dithiobis(2-nitrobenzoic acid)—a reexamination. Anal. Biochem. 1979; 94, 75-81). Briefly, the reaction of DTNB with the mercapto group produces 2-nitro-5-thiobenzoic acid (TNB). The concentration of TNB is then measured by monitoring the absorbance at 412 nm. Cysteine was used to generate the standard curve with a molar extinction coefficient of 14,000±500 M^−1 cm^−1, which is close to the value in the literature (Riddles, P. W., Blakeley, R. L., and Zerner, B. Ellman's reagent: 5,5′-dithiobis(2-nitrobenzoic acid)—a reexamination. Anal. Biochem. 1979; 94, 75-81).
(§3) The substrate Mca-PLGLDpaAR-NH2 was used to measure inhibition constants (Knight, C. G., Willenbrock. F., and Murphy, G. A novel coumarin-labelled peptide for sensitive continuous assays of the matrix metalloproteinases. FEBS Lett. 1992; 296, 263-266). Enzymatic assays were performed at 25° C. in 50 mM HEPES buffer at pH 7.5 in the presence of 10 mM CaCl2, 0.2 M NaCl, and 0.01% or 0.05% Brij-35 with substrate concentrations of 1 μM. The release of product was monitored by measuring fluorescence (excitation and emission wavelengths of 328 nm and 393 nm, respectively) with a Perkin Elmer Luminescence Spectrophotometer LS 50B connected to a temperature controlled water bath. All stock solutions of inhibitors were in dimethyl sulfoxide. […]

[2] = molecular target: T2, MMP-26 (EDM; human endometase) (Homo sapiens, UniProt Q9NRE1); test: Enzyme kinetic assay, inhibition of MMP-26; settings: read-out: Ki (value in parentheses), EDM MMP-26
T2 sequence (Q9NRE1 90-261): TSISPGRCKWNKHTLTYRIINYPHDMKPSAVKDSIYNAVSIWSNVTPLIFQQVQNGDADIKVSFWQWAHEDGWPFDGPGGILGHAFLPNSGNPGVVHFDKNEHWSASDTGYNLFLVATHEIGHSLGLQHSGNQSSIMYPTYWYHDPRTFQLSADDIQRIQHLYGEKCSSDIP
Excerpt: as §1, §2, §3

[3] = molecular target: T3, MMP-12 (cdMET; catalytic domain of MMP-12/metalloelastase) (Homo sapiens, UniProt P39900); test: Enzyme kinetic assay, inhibition of MMP-12; settings: read-out: Ki (value in parentheses), cdMET MMP-12
T3 construct: catalytic domain of MMP-12/metalloelastase (cdMET)
Excerpt: as §1, §2, §3

[4] = molecular target: T4, MMP-1 (HFC; human fibroblast collagenase) (Homo sapiens, UniProt P03956); test: Enzyme kinetic assay, inhibition of MMP-1; settings: for IC50: 25° C., pH 7.5, substrate 1 μM, read-out: IC50 (value without parentheses), HFC MMP-1; for Ki: read-out: Ki (value in parentheses), HFC MMP-1
T4 sequence (P03956 100-469): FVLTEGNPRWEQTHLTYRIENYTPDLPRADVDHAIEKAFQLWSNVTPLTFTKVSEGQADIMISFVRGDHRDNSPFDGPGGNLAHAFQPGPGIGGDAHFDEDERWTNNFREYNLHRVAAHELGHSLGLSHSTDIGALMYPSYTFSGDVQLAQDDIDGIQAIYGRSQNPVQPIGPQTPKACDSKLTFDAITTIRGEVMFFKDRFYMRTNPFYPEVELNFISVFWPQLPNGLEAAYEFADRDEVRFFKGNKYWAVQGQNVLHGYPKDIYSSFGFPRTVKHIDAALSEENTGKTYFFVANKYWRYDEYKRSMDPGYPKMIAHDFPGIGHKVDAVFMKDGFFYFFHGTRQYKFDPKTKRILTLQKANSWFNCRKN
Excerpt: as §1, §2, §3

[5] = molecular target: MMP-9 (HNG; human neutrophil gelatinase) (Homo sapiens, UniProt P14780); test: Enzyme kinetic assay, inhibition of MMP-9; settings: read-out: Ki (value in parentheses), HNG MMP-9
Excerpt: as §1, §2, §3

[6] = molecular target: MMP-3 (HFS; human fibroblast stromelysin-1) (Homo sapiens, UniProt P08254); test: Enzyme kinetic assay, inhibition of MMP-3; settings: for IC50: 25° C., pH 7.5, substrate 1 μM, read-out: IC50 (value without parentheses), HFS MMP-3; for Ki: read-out: Ki (value in parentheses), HFS MMP-3
Excerpt: as §1, §2, §3

MMP-13 (COL-3) = MMP-13 (COL-3) (Homo sapiens, UniProt P45452); test: Enzyme kinetic assay, inhibition of MMP-13; settings: read-out: Ki (value in parentheses), COL-3 MMP-13
Excerpt: as §1, §2, §3

T3 sequence (P39900 106-263 limits assumed, species assumed): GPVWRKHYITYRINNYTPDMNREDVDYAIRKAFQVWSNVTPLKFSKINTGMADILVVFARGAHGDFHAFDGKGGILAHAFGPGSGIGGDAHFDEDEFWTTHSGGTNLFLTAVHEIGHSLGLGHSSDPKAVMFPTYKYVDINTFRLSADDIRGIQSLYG
MMP-9 (HNG; human neutrophil gelatinase), sequence (P14780 94-707): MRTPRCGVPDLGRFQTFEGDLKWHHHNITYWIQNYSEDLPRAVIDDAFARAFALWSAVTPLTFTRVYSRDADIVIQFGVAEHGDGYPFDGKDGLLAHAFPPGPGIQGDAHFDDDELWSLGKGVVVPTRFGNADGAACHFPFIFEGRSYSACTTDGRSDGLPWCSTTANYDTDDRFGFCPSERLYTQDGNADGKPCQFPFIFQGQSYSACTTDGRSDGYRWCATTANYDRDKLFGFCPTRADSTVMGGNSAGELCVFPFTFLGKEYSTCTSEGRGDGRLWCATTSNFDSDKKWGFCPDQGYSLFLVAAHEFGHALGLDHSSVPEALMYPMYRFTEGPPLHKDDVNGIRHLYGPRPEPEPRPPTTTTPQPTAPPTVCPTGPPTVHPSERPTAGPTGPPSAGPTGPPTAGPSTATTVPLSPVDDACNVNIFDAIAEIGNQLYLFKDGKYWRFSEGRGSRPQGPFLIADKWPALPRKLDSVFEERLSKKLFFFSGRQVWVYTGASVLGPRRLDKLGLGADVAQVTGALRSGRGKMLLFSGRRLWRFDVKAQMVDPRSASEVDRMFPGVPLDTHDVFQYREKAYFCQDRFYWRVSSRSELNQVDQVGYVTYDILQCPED
MMP-3 (HFS; human fibroblast stromelysin-1), sequence (P08254 100-477): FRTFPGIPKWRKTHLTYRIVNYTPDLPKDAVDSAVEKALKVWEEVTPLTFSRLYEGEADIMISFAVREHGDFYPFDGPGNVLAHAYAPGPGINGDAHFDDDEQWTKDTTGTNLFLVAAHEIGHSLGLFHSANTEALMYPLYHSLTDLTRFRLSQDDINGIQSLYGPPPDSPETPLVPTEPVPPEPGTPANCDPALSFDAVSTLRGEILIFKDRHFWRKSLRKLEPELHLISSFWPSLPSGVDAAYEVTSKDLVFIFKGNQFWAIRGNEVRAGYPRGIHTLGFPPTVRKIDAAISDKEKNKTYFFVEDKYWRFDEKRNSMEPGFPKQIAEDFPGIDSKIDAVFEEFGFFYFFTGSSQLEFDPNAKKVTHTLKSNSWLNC

CC(=O)NCCCCCC(=O)N1C[C@H](NS(=O)(=O)c2ccc(-c3ccccc3)cc2)[C@@H](S)C1 (racemic) [Example 9, (±)-N-(6-Acetamidohexanoyl)-trans-3-(4-phenylbenzene-sulfonamido)-4-mercaptopyrrolidine]
Ki [1]: 70 nM
Ki [2]: 270 nM
Ki [3]: 29 nM
IC50 [4]: > 6000 nM
Ki [5]: 400 nM
IC50 [6]: ~20000 nM
Ki (MMP-13 (COL-3)): 47 nM

CN([C@H]1CN(C(N)=O)C[C@@H]1S)S(=O)(=O)c1ccc(Oc2ccccc2)cc1 (racemic) [Example 4, (±)-N-Carbamoyl-trans-3-(N-methyl-4-phenoxybenzenesulfonamido)-4-mercaptopyrrolidine]
Ki [1]: 62 nM
Ki [2]: 19 nM
Ki [3]: 160 nM
Ki [4]: 850 nM
Ki [5]: 1.3 nM
Ki [6]: 350 nM
Ki (MMP-13 (COL-3)): 28 nM

O=C(OCc1ccccc1)N1C[C@H](NS(=O)(=O)c2ccc(Oc3ccccc3)cc2)[C@@H](S)C1 (racemic) [Example 5, (±)-N-(Benzyloxycarbonyl)-trans-3-(4-phenoxybenzenesulfonamido)-4-mercaptopyrrolidine]
Ki [1]: 100 nM
Ki [2]: 72 nM
Ki [3]: 720 nM
IC50 [4]: > 12500 nM
Ki [5]: 13 nM
Ki [6]: 4500 nM
Ki (MMP-13 (COL-3)): 450 nM

NC(=O)N1C[C@H](NS(=O)(=O)c2ccc(Oc3ccccc3)cc2)[C@@H](S)C1 (racemic) [Example 1, (±)-N-Carbamoyl-trans-3-(4-phenoxybenzenesulfonamido)-4-mercaptopyrrolidine]
Ki [1]: 11 nM
Ki [2]: 32 nM
Ki [3]: 250 nM
Ki [4]: 4100 nM
Ki [5]: 15 nM
Ki [6]: 460 nM
Ki (MMP-13 (COL-3)): 50 nM

NCCCCCC(=O)N1C[C@H](NS(=O)(=O)c2ccc(Oc3ccccc3)cc2)[C@@H](S)C1 (racemic) [Example 7, (±)-N-(6-Aminohexanoyl)-trans-3-(4-phenoxybenzene-sulfonamido)-4-mercaptopyrrolidine Hydrochloride]
Ki [1]: 5 nM
Ki [2]: 4 nM
Ki [3]: 4.8 nM
IC50 [4]: > 3000 nM
Ki [5]: 2.3 nM
Ki [6]: 2000 nM
Ki (MMP-13 (COL-3)): 2 nM

O=C(NCCN1C(=O)c2ccccc2C1=O)N1C[C@H](NS(=O)(=O)c2ccc(Oc3ccccc3)cc2)[C@@H](S)C1 (racemic) [Example 2, (±)-N-(2-Phthalimidoethylaminocarbonyl)-trans-3-(4-phenoxybenzenesulfonamido)-4-mercaptopyrrolidine]
Ki [1]: 21 nM
Ki [2]: 41 nM
Ki [3]: 2 nM
Ki [4]: 2800 nM
Ki [5]: 2.4 nM
Ki [6]: 37 nM
Ki (MMP-13 (COL-3)): 27 nM

O=S(=O)(N[C@H]1CNC[C@@H]1S)c1ccc(Oc2ccccc2)cc1 (racemic) [Example 3, (±)-trans-3-(4-Phenoxybenzenesulfonamido)-4-mercaptopyrrolidine Hydrochloride]
Ki [1]: 110 nM
Ki [2]: 28 nM
Ki [3]: 38 nM
IC50 [4]: ~25000 nM
Ki [5]: 230 nM
Ki [6]: 2500 nM
Ki (MMP-13 (COL-3)): 35 nM

O=C(OCc1ccccc1)N1C[C@H](NS(=O)(=O)c2ccc(-c3ccccc3)cc2)[C@@H](S)C1 (racemic) [Example 6, (±)-N-(Benzyloxycarbonyl)-trans-3-(4-phenylbenzenesulfonamido)-4-mercaptopyrrolidine]
Ki [1]: 3100 nM
Ki [2]: 650 nM
Ki [3]: 710 nM
IC50 [4]: > 130000 nM
Ki [5]: 81 nM
IC50 [6]: ~7000 nM
Ki (MMP-13 (COL-3)): 100 nM

CC(=O)NCCCCCC(=O)N1C[C@H](NS(=O)(=O)c2ccc(Oc3ccccc3)cc2)[C@@H](S)C1 (racemic) [Example 8, (±)-N-(6-Acetamidohexanoyl)-trans-3-(4-phenoxy-benzenesulfonamido)-4-mercaptopyrrolidine]
Ki [1]: 4 nM
Ki [2]: 3 nM
Ki [3]: 2 nM
IC50 [4]: > 6000 nM
Ki [5]: 1.5 nM
Ki [6]: 810 nM
Ki (MMP-13 (COL-3)): 1.7 nM
